Experimental data published in patent US20220017566A1, “TERPINOID DERIVATIVES AND USES THEREOF” (SICHUAN HAISCO PHARMACEUTICAL CO., LTD., priority 2018, published 2022).
Read-outs that look alike come from different tables or passages of the source.

Assays:
[1] = tested on: IFNγ-induced NO production in Raw 264.7 cells; experiment: Nitric oxide assay: suppression of IFNγ-induced NO production (Griess nitrite, adjusted to live cell numbers); format: cell-based; conditions: Mus musculus, RAW264.7, 2 h pretreatment, IFNγ 10 ng/ml for 24 hours
Summary of the method: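 Raw 264.7 cells in DMEM + 2% FBS were pretreated 2 h with compound (10-point, 1:4 dilution from 100 nM), then stimulated with 10 ng/ml mouse IFNγ for 24 h. Media nitrite was read by Griess and normalised to CellTiter-Glo viability. IC50 from four-parameter fit of % inhibition.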

[2] = tested on: NQO1; experiment: NQO1 activity assay in Raw264.7 cell lysates; format: cell-based; conditions: Mus musculus; Raw264.7 cells, 48 hours treatment
Method: Raw264.7 cells were seeded in DMEM+10% FBS in 96-well plates at a density of 10,000 cells per well. 6 hours after plating, cells were treated with DMSO or test compounds (top dose 100 nM, 1:4 serial dilution, 8-point) for 48 hours. NQO1 activity was then detected in cell lysates using NQO1 activity assay kit (Abeam, Cat#ab184867). NQO1 activity was then plotted against compound concentration, and EC50 values were calculated using four-parameter algorithm in Graphpad Prism.

[3] = target: T1, CYP1A2 (Homo sapiens, UniProt P05177); experiment: CYP450 enzyme inhibition in liver microsomes (cocktail probe incubation); format: in vitro ADME; conditions: species not given, 0.05-50 μM tested
T1 construct: studied in liver microsomes of CD-1 mouse, Sprague Dawley rat, Beagle dog, cynomolgus monkey, and human; from tissue; host or cells: liver microsomes
T1 sequence (P05177 1-516): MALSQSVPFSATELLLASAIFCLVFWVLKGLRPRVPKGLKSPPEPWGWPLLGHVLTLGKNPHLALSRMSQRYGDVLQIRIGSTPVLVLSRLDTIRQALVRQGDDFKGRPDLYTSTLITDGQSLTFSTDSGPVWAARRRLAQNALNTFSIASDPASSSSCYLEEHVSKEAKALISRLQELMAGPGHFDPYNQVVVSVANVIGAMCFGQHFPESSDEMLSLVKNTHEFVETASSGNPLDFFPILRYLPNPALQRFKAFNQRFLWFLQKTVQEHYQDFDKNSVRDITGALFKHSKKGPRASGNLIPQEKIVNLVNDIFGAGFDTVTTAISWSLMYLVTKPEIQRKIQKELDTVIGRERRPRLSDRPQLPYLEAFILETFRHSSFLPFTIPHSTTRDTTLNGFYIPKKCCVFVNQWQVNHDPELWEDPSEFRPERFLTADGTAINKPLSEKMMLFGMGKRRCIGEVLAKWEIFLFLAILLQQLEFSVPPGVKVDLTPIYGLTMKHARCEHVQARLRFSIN
Summary of the method: (§1)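 Liver microsomes (CD-1 mouse, SD rat, Beagle dog, cynomolgus monkey, human) incubated with a cocktail of CYP-specific probe substrates. Test compounds at seven concentrations (0.05, 0.15, 0.5, 1.5, 5, 15, 50 μM). Known inhibitors included as positive controls at a single concentration above their IC50.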

[4] = target: T2, CYP2C19 (Homo sapiens, UniProt P33261); experiment: as above; format: in vitro ADME; conditions: species not given, 0.05-50 μM tested
T2 construct: studied in liver microsomes of CD-1 mouse, Sprague Dawley rat, Beagle dog, cynomolgus monkey, and human; from tissue; host or cells: liver microsomes
Summary of the method: as §1

[5] = target: T3, CYP2C9 (Homo sapiens, UniProt P11712); experiment: as above; format: in vitro ADME; conditions: species not given, 0.05-50 μM tested
T3 construct: studied in liver microsomes of CD-1 mouse, Sprague Dawley rat, Beagle dog, cynomolgus monkey, and human; from tissue; host or cells: liver microsomes
Summary of the method: as §1

[6] = target: T4, CYP2D6 (Homo sapiens, UniProt P10635); experiment: as above; format: in vitro ADME; conditions: species not given, 0.05-50 μM tested
T4 construct: studied in liver microsomes of CD-1 mouse, Sprague Dawley rat, Beagle dog, cynomolgus monkey, and human; from tissue; host or cells: liver microsomes
Summary of the method: as §1

[7] = target: T5, CYP3A4 (Homo sapiens, UniProt P08684); experiment: as above; format: in vitro ADME; conditions: species not given, 0.05-50 μM tested
T5 construct: studied in liver microsomes of CD-1 mouse, Sprague Dawley rat, Beagle dog, cynomolgus monkey, and human; from tissue; host or cells: liver microsomes
Summary of the method: as §1

[8] = Metabolic stability in human liver microsomes; format: in vitro ADME
Method: (§2) The metabolic stability of test compounds was examined in CD-1 mouse, Sprague Dawley rat, Beagle dog, cynomolgus monkey, and human liver microsomes. Test compound (final concentration 1 μM) was mixed with diluted liver microsomes from each of the 5 species and a small aliquot was taken at 0, 5, 10, 20, 30, and 60 minutes for LC/MS/MS analysis. Intrinsic clearance and half-life were calculated.

[9] = Metabolic stability in rat liver microsomes; format: in vitro ADME; conditions: Sprague Dawley
Method: as §2

[10] = Metabolic stability in mouse liver microsomes; format: in vitro ADME, CD-1 mouse; conditions: CD-1
Method: as §2

[11] = Metabolic stability in dog liver microsomes; format: in vitro ADME; conditions: Beagle
Method: as §2

[12] = Metabolic stability in monkey liver microsomes; format: in vitro ADME, cynomolgus monkey
Method: as §2

[13] = Pharmacokinetic studies in Sprague Dawley rats (oral gavage and IV); format: in vivo; conditions: rat, male SD rats, plasma; for AUC(0-t): read-out: AUC0-24 h; for bioavailability: oral 5 mg/kg vs IV 1 mg/kg, read-out: Bioavailibility F %
Method: The pharmacokinetics of test compounds was evaluated in male SD rats when administered via oral gavage and IV injection. For oral dosing, compound was formulated in 0.5% methylcellulose and administered at doses of 5 mg/kg (3 rats per dose level) and volume of 10 mL/kg. For IV dosing, compound was formulated in 5% DMSO/5% Solutol/90% saline and administered to 3 rats at a dose of 1 mg/kg and a volume of 5 mL/kg. The rats were fasted overnight before administration. Plasma samples were collected predose and at 0.5, 1, 3, 6, 9, 12, and 24 hours postdose. The samples were analyzed by LC/MS/MS and the concentration of test compound at each timepoint was determined by linear regression. Pharmacokinetic parameters were calculated from the plasma concentrations using Pheonix WinNonlin.

T2 sequence (P33261 whole entry): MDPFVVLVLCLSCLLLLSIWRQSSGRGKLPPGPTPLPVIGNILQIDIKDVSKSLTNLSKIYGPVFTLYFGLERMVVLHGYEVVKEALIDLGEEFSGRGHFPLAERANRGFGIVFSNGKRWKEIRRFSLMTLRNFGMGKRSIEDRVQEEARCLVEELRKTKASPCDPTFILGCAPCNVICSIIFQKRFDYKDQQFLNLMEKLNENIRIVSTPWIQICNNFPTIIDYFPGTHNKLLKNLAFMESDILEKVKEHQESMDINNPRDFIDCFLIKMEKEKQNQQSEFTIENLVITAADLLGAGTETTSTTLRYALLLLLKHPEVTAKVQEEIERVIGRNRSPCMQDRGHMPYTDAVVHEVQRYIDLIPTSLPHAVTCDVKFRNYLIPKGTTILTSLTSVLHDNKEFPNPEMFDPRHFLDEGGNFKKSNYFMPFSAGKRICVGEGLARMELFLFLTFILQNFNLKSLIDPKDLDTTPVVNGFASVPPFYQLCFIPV
T5 sequence (P08684 whole entry): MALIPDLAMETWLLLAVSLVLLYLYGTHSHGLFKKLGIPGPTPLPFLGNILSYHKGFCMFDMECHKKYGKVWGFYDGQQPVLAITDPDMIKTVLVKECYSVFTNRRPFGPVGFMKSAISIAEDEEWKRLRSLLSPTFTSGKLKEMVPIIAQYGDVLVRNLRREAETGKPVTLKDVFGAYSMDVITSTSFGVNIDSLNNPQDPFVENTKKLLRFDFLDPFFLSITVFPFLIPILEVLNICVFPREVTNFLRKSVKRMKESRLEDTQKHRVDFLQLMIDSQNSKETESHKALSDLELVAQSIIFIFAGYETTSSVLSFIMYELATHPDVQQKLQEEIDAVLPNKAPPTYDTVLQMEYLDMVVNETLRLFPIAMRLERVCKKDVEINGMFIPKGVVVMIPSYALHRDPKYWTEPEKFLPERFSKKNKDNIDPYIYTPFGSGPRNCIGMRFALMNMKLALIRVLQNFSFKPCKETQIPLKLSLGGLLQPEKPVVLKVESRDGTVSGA
T4 sequence (P10635 whole entry): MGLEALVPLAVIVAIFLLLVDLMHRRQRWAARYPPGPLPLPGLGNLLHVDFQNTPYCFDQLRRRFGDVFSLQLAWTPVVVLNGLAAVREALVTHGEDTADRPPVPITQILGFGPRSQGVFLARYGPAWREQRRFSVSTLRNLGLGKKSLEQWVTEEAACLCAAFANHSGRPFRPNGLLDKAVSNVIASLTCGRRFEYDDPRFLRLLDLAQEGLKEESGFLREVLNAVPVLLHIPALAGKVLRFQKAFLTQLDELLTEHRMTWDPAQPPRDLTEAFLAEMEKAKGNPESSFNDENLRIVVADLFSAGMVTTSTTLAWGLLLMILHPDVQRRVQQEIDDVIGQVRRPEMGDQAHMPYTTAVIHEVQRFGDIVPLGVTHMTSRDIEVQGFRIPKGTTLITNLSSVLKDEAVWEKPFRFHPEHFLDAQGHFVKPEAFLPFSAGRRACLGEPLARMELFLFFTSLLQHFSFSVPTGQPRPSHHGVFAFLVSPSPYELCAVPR
T3 sequence (P11712 whole entry): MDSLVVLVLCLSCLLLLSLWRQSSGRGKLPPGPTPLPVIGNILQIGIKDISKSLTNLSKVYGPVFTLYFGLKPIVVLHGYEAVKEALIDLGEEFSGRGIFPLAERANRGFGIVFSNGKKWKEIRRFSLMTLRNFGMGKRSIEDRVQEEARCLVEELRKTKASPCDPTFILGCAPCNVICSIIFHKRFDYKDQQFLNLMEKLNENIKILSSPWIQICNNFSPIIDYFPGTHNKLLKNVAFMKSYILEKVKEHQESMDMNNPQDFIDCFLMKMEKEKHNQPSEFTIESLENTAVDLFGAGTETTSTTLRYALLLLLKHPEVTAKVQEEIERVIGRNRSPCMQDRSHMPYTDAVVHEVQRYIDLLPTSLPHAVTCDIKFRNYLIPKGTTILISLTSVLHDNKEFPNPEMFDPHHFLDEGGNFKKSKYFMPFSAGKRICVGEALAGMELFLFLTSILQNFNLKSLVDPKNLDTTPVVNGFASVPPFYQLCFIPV

Structure (SMILES)	IC50 [1] [µM]	EC50 [2] [µM]	IC50 [3] [µM]	IC50 [4] [µM]	IC50 [5] [µM]	IC50 [6] [µM]	IC50 [7] [µM]	CLint scaled at 1 μM [8] [mL/min/kg]	half-life at 1 μM [8] [min]	CLint scaled at 1 μM [9] [mL/min/kg]	half-life at 1 μM [9] [min]	CLint scaled at 1 μM [10] [mL/min/kg]	half-life at 1 μM [10] [min]	CLint scaled at 1 μM [11] [mL/min/kg]	half-life at 1 μM [11] [min]	CLint scaled at 1 μM [12] [mL/min/kg]	half-life at 1 μM [12] [min]	C0 ([13]; IV (1 mg/kg)) [ng/mL]	clearance ([13]; IV (1 mg/kg)) [mL/min/kg]	half-life ([13]; IV (1 mg/kg)) [min]	further results
CC(=NC#N)NC[C@]12CCC(C)(C)C[C@H]1[C@H]1C(=O)C=C3[C@@]4(C)C=C(C#N)C(=O)C(C)(C)[C@@H]4CC[C@@]3(C)[C@]1(C)CC2 [Example 4, N′-cyano-N-(((4aS,6aR,6bS,8aR,12aS,14aR,14bS)-11-cyano-2,2,6a,6b,9,9,12a-heptamethyl-10,14-dioxo-1,3,4,5,6,6a,6b,7,8,8a,9,10,12a,14,14a,14b-hexadecahydropicen-4a(2H)-yl)methyl)acetimidamide]	< 0.01	0.01 to 0.1	> 50	4.5	1.6	2.2	3.3	34.2	36.5	38.8	64.3	147	37.3	101	19.7	104	18.1	747	50.9	192	AUC(0-t) ([13]; IV (1 mg/kg)): 292 ng·h/mL; Cmax ([13]; Oral (5 mg/kg)): 51 ng/mL; half-life ([13]; Oral (5 mg/kg)): 174 min; AUC(0-t) ([13]; Oral (5 mg/kg)): 214 ng·h/mL; bioavailability [13]: 14.6%
CC1(C)C(=O)C(C#N)=C[C@]2(C)C3=CC(=O)[C@@H]4[C@@H]5C[C@@](C)(c6nnc(C(N)=O)o6)CC[C@]5(C)CC[C@@]4(C)[C@]3(C)CC[C@@H]12 [Example 25, 5-((2S,4aS,6aR,6bS,8aR,12aS,14aR,14bS)-11-cyano-2,4a,6a,6b,9,9,12a-heptamethyl-10,14-dioxo-1,2,3,4,4a,5,6,6a,6b,7,8,8a,9,10,12a,14,14a,14b-octadecahydropicen-2-yl)-1,3,4-oxadiazole-2-carboxamide]	< 0.01	0.01 to 0.1	> 50	> 50	6.9	> 50	6.6	96.2	13	87.2	28.6	289	19	58.4	34.2	294	6.4	1300	63.3	84	AUC(0-t) ([13]; IV (1 mg/kg)): 263 ng·h/mL; Cmax ([13]; Oral (5 mg/kg)): 32 ng/mL; half-life ([13]; Oral (5 mg/kg)): 78 min; AUC(0-t) ([13]; Oral (5 mg/kg)): 102 ng·h/mL; bioavailability [13]: 7.8%
CC1(C)C(=O)C(C#N)=C[C@]2(C)C3=CC(=O)[C@@H]4[C@@H]5C[C@@](C)(N6CC(O)C6)CC[C@]5(C)CC[C@@]4(C)[C@]3(C)CC[C@@H]12 [Example 26, (4aR,6aS,6bR,8aS,11S,12aS,14bS)-11-(3-hydroxyazetidin-1-yl)-4,4,6a,6b,8a,11,14b-heptamethyl-3,13-dioxo-3,4,4a,5,6,6a,6b,7,8,8a,9,10,11,12,12a,12b,13,14b-octadecahydropicene-2-carbonitrile]	< 0.01	< 0.01	> 50	> 50	27.6	> 50	14.6	184	6.8	161	15.5	402	13.7	77.3	25.8	752	2.5	1040	56.3	282	AUC(0-t) ([13]; IV (1 mg/kg)): 294 ng·h/mL; Cmax ([13]; Oral (5 mg/kg)): 57 ng/mL; half-life ([13]; Oral (5 mg/kg)): 216 min; AUC(0-t) ([13]; Oral (5 mg/kg)): 270 ng·h/mL; bioavailability [13]: 18.3%
